In US20250144131A1, “POLYSACCHARIDE COMPOUND WITH A DEFINED MOLECULAR STRUCTURE FOR THE TREATMENT OF PULMONARY FIBROSIS” (SHENZHEN YANDAI INVESTMENT CO., LTD, priority 2023, published 2025):

Assays:
bone marrow cells = system: bone marrow cells; set-up: species or system C57 mice; conditions: mouse, in vivo, 130 mg/kg
Experimental: (§1) LLC cells in logarithmic growth phase at 1×10^7/mL were inoculated at 0.2 mL into the right axilla of 10 purchased normal male C57 mice. Tumor growth was monitored, and tumor-bearing mice were prepared. Once the tumor volume in tumor-bearing mice exceeded 200 mm^3, the tumor tissue was aseptically harvested to prepare a tissue cell suspension. This was mixed at a 1:1 (V:V) ratio with culture medium to create a tumor tissue homogenate. This homogenate was injected into the right axilla of 60 male C57 mice at 0.2 mL per mouse. When the tumor volume in these tumor-bearing mice exceeded 100 mm^3, mice with well-grown tumors without ulceration were selected and randomized into groups based on tumor volume as follows: model control group, cisplatin group (4 mg/kg), Kanglaite soft capsule group (1,404 mg/kg), cisplatin+Kanglaite soft capsule group (4+1,404 mg/kg), cisplatin+GLP-4 low-dose group (4+130 mg/kg), and cisplatin+GLP-4 high-dose group (4+1,170 mg/kg), with 8 mice per group. Additionally, 8 mice were selected as a normal control group. The cisplatin group received intraperitoneal injections of cisplatin, and the other groups were administered their respective drug solutions by gavage (20 mL/kg) or intraperitoneal injection (10 mL/kg), once daily for 27 consecutive days. After the last dose, blood was collected from the orbital plexus to test blood WBC, RBC, liver and kidney function indicators (ALT, AST, BUN, CRE), and CD3^+, CD4^+, and CD8^+ levels. Bone marrow smears were examined, and spleens, thymuses, and tumors were weighed. Histopathological examinations were conducted on the tumor, spleen, stomach, and kidneys.

[1] = Hematological and liver/kidney function tests (WBC, RBC, ALT, AST, BUN, CRE) in LLC-bearing mice
Experimental: as §1
Hematological tests: Blood samples for routine blood tests (WBC and RBC) and liver and kidney function tests (BUN and CRE) were collected from the orbital plexus after the last dose.

[2] = system: Liver cancer (H22) cells, orthotopic; test: Tumors in orthotopic H22-bearing mice by small animal in vivo imaging; set-up: species or system C57 mice; conditions: for Tumor (in vivo imaging): Kanglaite soft capsule 1404 mg/kg
Description: (§2) Liver cancer (H22) cells, labeled with Luc fluorescent marker at a concentration of 1×10^7 cells/mL, were initially inoculated into the peritoneal cavity of 8 male C57 mice. After the development of ascites, the ascitic fluid was aseptically extracted, washed with HBSS buffer, centrifuged to discard the supernatant, and stained with Trypan Blue, and cells in the ascitic fluid were counted under a microscope. The cell concentration was adjusted to […] with HBSS buffer and inoculated into the right hepatic region of 51 male C57 mice, at a volume of 10 μL per mouse, to prepare the orthotopic tumor-bearing mice. One week later, the liver tumor formation in mice was detected using a small animal in vivo imaging system. Based on tumor size, the mice were randomized into groups: model control group, cisplatin group (4 mg/kg), Kanglaite soft capsule group (1,404 mg/kg), cisplatin+Kanglaite soft capsule group (4+1,404 mg/kg), cisplatin+GLP-4 low-dose group (4+130 mg/kg), and cisplatin+GLP-4 high-dose group (4+1,170 mg/kg), with 6 mice per group. An additional 6 mice served as the normal control group. The normal control group and the model control group were administered pure water by oral gavage. The chemotherapy group received intraperitoneal injections of cisplatin, and the other groups were administered their respective drug solutions by oral gavage (20 mL/kg) or intraperitoneal injection (10 mL/kg), once daily for 14 consecutive days. After the last dose, blood was collected from the orbital plexus to test blood WBC, RBC, liver and kidney function indicators (ALT, AST, BUN, CRE), and CD3^+/CD4^+, CD3^+/CD8^+ ratios. The spleen, thymus, and tumors were weighed to calculate organ coefficients.
Tumor volume measurement: Tumor volume changes were measured weekly using small animal in vivo imaging technology.

[3] = system: H22 hepatoma solid tumors; test: Antitumor effect in H22-bearing mice (tumor volume, relative tumor growth inhibition rate, tumor index, tumor growth inhibition rate); type: in vivo, C57 mice
Experimental: Longest and shortest diameters of tumors were measured every three days to calculate tumor volume, and mouse weights were recorded every three days. At the end of the experiment, tumors, spleens, and thymuses were harvested and weighed to calculate tumor, spleen, and thymus indices. […] Where TRTV is the relative tumor volume in the experimental group, and CRTV is the relative tumor volume in the model control group. Relative tumor volume (RTV)=Vt/V0, where Vt is the tumor volume on day t of dosing, and V0 is the tumor volume at the time of grouping. Evaluation criteria: […] Where T represents the average tumor weight in the treatment group, and C represents the average tumor weight in the model control group. Evaluation criteria: […]

[4] = system: CD4+ and CD8+ lymphocyte subtypes; test: Blood CD3+/CD4+ and CD3+/CD8+ ratios by flow cytometry in orthotopic H22-bearing mice; type: in vivo, C57 mice; conditions: cisplatin 4 mg/kg, Kanglaite soft capsule 1404 mg/kg
Experimental: CD4^+ and CD8^+ content measurement: After the last dose, lymphocyte subtypes CD3^+/CD4^+ and CD3^+/CD8^+ in the blood were measured using flow cytometry.

[5] = Mortality and body weight of orthotopic H22-bearing mice; conditions: Kanglaite soft capsule 1404 mg/kg
Description: as §2
Animal survival and general condition: Weight was recorded weekly, along with any deaths among the animals.

LLC tumors = test: Histopathology (H&E) of tumor, spleen, stomach and kidney in LLC-bearing mice; type: in vivo, C57 mice; conditions: cisplatin 4, Kanglaite 1404, GLP-4 low-dose 130 mg/kg
Description: Histopathology examination: After the last dose, tissues from tumors, spleens, stomachs, and kidneys were collected for H&E staining to observe histopathological changes.

Question: With N.N.[Cl][Pt][Cl] [Cisplatin, cisplatin] as the compound, how does the Lymphatic system (bone marrow cells) read?
Answer: Its Lymphatic system is 15.75 ± 3.44.

Question: What about the Mononuclear cell system (bone marrow cells) of the same compound?
Answer: The Mononuclear cell system was 2.88 ± 0.55.

Question: What about the Myeloid/erythroid ratio (bone marrow cells) of the same compound?
Answer: Its Myeloid/erythroid ratio is 3.68 ± 1.68.

Question: What about the Other cells (bone marrow cells) of the same compound?
Answer: The Other cells was 2.50 ± 2.01.

Question: What about the Red cell system (bone marrow cells) of the same compound?
Answer: The Red cell system was 22.75 ± 5.67.

Question: What about the ALT ([1]; LLC-bearing mice, blood after last dose, cisplatin 4, Kanglaite 1404, GLP-4 low-dose 130 mg/kg) of the same compound?
Answer: The ALT was 58.25 U/L.

Question: And the AST ([1]; mouse, in vivo, 130 mg/kg)?
Answer: The AST was 393.25 U/L.

Question: What about the BUN ([1]; mouse, in vivo, 130 mg/kg) of the same compound?
Answer: The BUN was 7.91 mmol/L.

Question: What about the CRE ([1]; mouse, in vivo, 130 mg/kg) of the same compound?
Answer: The CRE was 20.45 µmol/L.

Question: And the RBC ([1]; mouse, in vivo, 130 mg/kg)?
Answer: Its RBC is 6.01 ± 10^12/L.

Question: And the WBC ([1]; mouse, in vivo, 130 mg/kg)?
Answer: Its WBC is 11.09 ± 10^9/L.

Question: What about the “Tumor (in vivo imaging)” value ([2]; W0, cisplatin 4 mg/kg) of the same compound?
Answer: The value was 3756000 P/s/cm^2/sr.

Question: What about the “Tumor (in vivo imaging)” value ([2]; W1, cisplatin 4 mg/kg) of the same compound?
Answer: The value was 12898500 P/s/cm^2/sr.

Question: And the “Tumor (in vivo imaging)” value ([2]; W2, cisplatin 4 mg/kg)?
Answer: Its value is 11871333 P/s/cm^2/sr.

Question: And the “Tumors compared to the model control group (in vivo imaging)” value ([2]; cisplatin 4, Kanglaite 1404, GLP-4 low-dose 130 mg/kg)?
Answer: Its value is “significantly decreased on W2”.

Question: And the “Relative tumor growth inhibition rate (compared to model control group)” value (shortened to “Relative tumor growth inhibition rate”) ([3]; D3, cisplatin 3, GLP-4 low-dose 50 mg/kg)?
Answer: The value was 32.9%.

Question: And the “Relative tumor growth inhibition rate” value ([3]; D6, cisplatin 3, GLP-4 low-dose 50 mg/kg)?
Answer: The value was 39.7%.

Question: What about the “Relative tumor growth inhibition rate” value ([3]; D9, cisplatin 3, GLP-4 low-dose 50 mg/kg, 50 mg/kg) of the same compound?
Answer: Its value is 66.5^+ %.

Question: And the “Relative tumor growth inhibition rate” value ([3]; D9, cisplatin 3, GLP-4 low-dose 50 mg/kg, listed as cisplatin, 50 mg/kg)?
Answer: The value was 66.5%.

Question: What about the “Relative tumor growth inhibition rate” value ([3]; D12, cisplatin 3, GLP-4 low-dose 50 mg/kg, 50 mg/kg) of the same compound?
Answer: The value was 70.6^+ %.

Question: What about the “Relative tumor growth inhibition rate” value ([3]; D12, cisplatin 3, GLP-4 low-dose 50 mg/kg, listed as cisplatin, 50 mg/kg) of the same compound?
Answer: Its value is 70.6%.

Question: And the “Relative tumor growth inhibition rate” value ([3]; D15, cisplatin 3, GLP-4 low-dose 50 mg/kg, 50 mg/kg)?
Answer: Its value is 69.1^+ %.

Question: What about the “Relative tumor growth inhibition rate” value ([3]; D15, cisplatin 3, GLP-4 low-dose 50 mg/kg, listed as cisplatin, 50 mg/kg) of the same compound?
Answer: Its value is 69.1%.

Question: What about the “Relative tumor growth inhibition rate” value ([3]; D18, cisplatin 3, GLP-4 low-dose 50 mg/kg, 50 mg/kg) of the same compound?
Answer: The value was 81.3^+ %.

Question: What about the “Relative tumor growth inhibition rate” value ([3]; D18, cisplatin 3, GLP-4 low-dose 50 mg/kg, listed as cisplatin, 50 mg/kg) of the same compound?
Answer: Its value is 81.3%.

Question: What about the “Relative tumor growth inhibition rate” value ([3]; D21, cisplatin 3, GLP-4 low-dose 50 mg/kg, 50 mg/kg) of the same compound?
Answer: Its value is 83.9^+ %.

Question: What about the “Relative tumor growth inhibition rate” value ([3]; D21, cisplatin 3, GLP-4 low-dose 50 mg/kg, listed as cisplatin, 50 mg/kg) of the same compound?
Answer: The value was 83.9%.

Question: And the “Relative tumor growth inhibition rate” value ([3]; D24, cisplatin 3, GLP-4 low-dose 50 mg/kg, 50 mg/kg)?
Answer: The value was 85.3^+ %.

Question: And the “Relative tumor growth inhibition rate” value ([3]; D24, cisplatin 3, GLP-4 low-dose 50 mg/kg, listed as cisplatin, 50 mg/kg)?
Answer: Its value is 85.3%.

Question: What about the “Relative tumor growth inhibition rate” value ([3]; D27, cisplatin 3, GLP-4 low-dose 50 mg/kg, 50 mg/kg) of the same compound?
Answer: The value was 84.3^+ %.

Question: What about the “Relative tumor growth inhibition rate” value ([3]; D27, cisplatin 3, GLP-4 low-dose 50 mg/kg, listed as cisplatin, 50 mg/kg) of the same compound?
Answer: The value was 84.3%.

Question: And the “Tumor growth inhibition rate (%) vs. the model control group” value ([3]; cisplatin group)?
Answer: The value was 88.7%.

Question: And the Tumor index ([3]; cisplatin group)?
Answer: The Tumor index was 2.8 ± 2.1^+ %.

Question: What about the “Tumor growth inhibition rate compared to the model control group” value ([3]; tumor weight, cisplatin 3, GLP-4 low-dose 50 mg/kg) of the same compound?
Answer: The value was 88.7%.

Question: What about the “CD3^+/CD4^+” value [4] of the same compound?
Answer: The value was 4.26 ± 0.04.

Question: And the “CD3^+/CD8^+” value [4]?
Answer: Its value is 4.21 ± 0.81.

Question: And the Number of deaths ([5]; 6 per group, cisplatin 4 mg/kg)?
Answer: The Number of deaths was 3.

Question: And the “Number of surviving animals” value ([5]; 6 per group, cisplatin 4 mg/kg)?
Answer: Its value is 3.

Question: And the Weight ([5]; W0, cisplatin 4 mg/kg)?
Answer: The Weight was 18.5 ± 1.3 g.

Question: What about the Weight ([5]; W1, cisplatin 4 mg/kg) of the same compound?
Answer: The Weight was 16.9 ± 1.8 ^ g.

Question: And the Weight ([5]; W2, cisplatin 4 mg/kg)?
Answer: The Weight was 15.1 ± 1.6 g.

Question: What about the Mortality rate ([5]; cisplatin 4 mg/kg) of the same compound?
Answer: The Mortality rate was 50.0%.

Question: What about the Tumor histopathology (LLC tumors) of the same compound?
Answer: Its Tumor histopathology is “large areas of necrosis and hemorrhage were visible at the tumor center, with abundant tumor cells”.
